Test results published in ChEMBL document CHEMBL1201862, “PubChem BioAssay data set” (2004).
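1) Cells in 96-well plates. 2) Compound, 48 h, 5 concentrations. 3) Linear interpolation between surrounding doses. 4) Unreached endpoint = highest concentration. The concentration for 50% growth inhibition is given as GI50.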 Calls of active or inactive are those of the source. Rule as the data show it: active = GI50 up to about 1.1 µM and inactive = higher.

Columns and labels:
Assay in all cases: growth of human tumour cells (NCI), 48 h
CCRF-CEM = test system: CCRF-CEM
786-0 = test system: 786-0
MDA-MB-435 = test system: MDA-MB-435
ACHN = test system: ACHN
U-251 = test system: U-251
SF-295 = test system: SF-295
Malme-3M = test system: Malme-3M
SR = test system: SR
SNB-75 = test system: SNB-75
HCC 2998 = test system: HCC 2998
UO-31 = test system: UO-31
SK-OV-3 = test system: SK-OV-3
A498 = test system: A498
CAKI-1 = test system: CAKI-1
NCI-H23 = test system: NCI-H23
TK-10 = test system: TK-10
NCI/ADR-RES = test system: NCI/ADR-RES
K562 = test system: K562
BT-549 = test system: BT-549
NCI-H522 = test system: NCI-H522
T47D = test system: T47D
DU-145 = test system: DU-145
A549 = test system: A549
HCT-15 = test system: HCT-15
UACC-257 = test system: UACC-257
OVCAR-5 = test system: OVCAR-5
SN12C = test system: SN12C
COLO 205 = test system: COLO 205
SK-MEL-2 = test system: SK-MEL-2
Hs-578T = test system: Hs-578T
UACC-62 = test system: UACC-62
PC-3 = test system: PC-3
MDA-MB-231 = test system: MDA-MB-231
SF-539 = test system: SF-539
OVCAR-3 = test system: OVCAR-3
RPMI-8226 = test system: RPMI-8226
HOP-62 = test system: HOP-62
IGROV-1 = test system: IGROV-1
KM12 = test system: KM12
M14 = test system: M14
OVCAR-8 = test system: OVCAR-8
SK-MEL-28 = test system: SK-MEL-28
MOLT-4 = test system: MOLT-4
EKVX = test system: EKVX
MCF7 = test system: MCF7
HL-60 = test system: HL-60
HCT-116 = test system: HCT-116
LOX IMVI = test system: LOX IMVI
SK-MEL-5 = test system: SK-MEL-5
HT-29 = test system: HT-29
NCI-H226 = test system: NCI-H226
SF-268 = test system: SF-268
SNB-19 = test system: SNB-19
NCI-H460 = test system: NCI-H460
MDA-N = test system: MDA-N
SW-620 = test system: SW-620
HOP-92 = test system: HOP-92
OVCAR-4 = test system: OVCAR-4
RXF 393 = test system: RXF 393

In the case of `S=c1sc2c(s1)SCCCCSCCCCSc1sc(=S)sc1SCCCCSCCCCS2`, the GI50 (CCRF-CEM) is reported as > 100 µM (inactive), the GI50 (786-0) is reported as 68.5 µM (inactive) and the GI50 (MDA-MB-435) is reported as > 100 µM (inactive). For the same compound, the GI50 (ACHN) was > 100 µM (inactive), the GI50 (U-251) was > 100 µM (inactive) and the GI50 (SF-295) was > 100 µM (inactive). For the same compound, the GI50 (Malme-3M) was > 100 µM (inactive), the GI50 (SR) was > 100 µM (inactive) and the GI50 (SNB-75) was 18.6 µM (inactive). For the same compound, the GI50 (HCC 2998) was > 100 µM (inactive), the GI50 (UO-31) was > 100 µM (inactive) and the GI50 (SK-OV-3) was > 100 µM (inactive). For the same compound, the GI50 (A498) was > 100 µM (inactive), the GI50 (CAKI-1) was > 100 µM (inactive) and the GI50 (NCI-H23) was > 100 µM (inactive). The GI50 (TK-10) was > 100 µM (inactive), the GI50 (NCI/ADR-RES) was > 100 µM (inactive) and the GI50 (K562) was > 100 µM (inactive). The GI50 (BT-549) was > 100 µM (inactive), the GI50 (NCI-H522) was > 100 µM (inactive) and the GI50 (T47D) was > 100 µM (inactive). For the same compound, the GI50 (DU-145) was > 100 µM (inactive), the GI50 (A549) was > 100 µM (inactive) and the GI50 (HCT-15) was > 100 µM. For the same compound, the GI50 (UACC-257) was > 100 µM (inactive), the GI50 (OVCAR-5) was > 100 µM (inactive) and the GI50 (SN12C) was > 100 µM (inactive). The GI50 (COLO 205) was > 100 µM (inactive), the GI50 (SK-MEL-2) was > 100 µM (inactive) and the GI50 (Hs-578T) was 30.2 µM (inactive). The GI50 (UACC-62) was > 100 µM (inactive), the GI50 (PC-3) was > 100 µM (inactive) and the GI50 (MDA-MB-231) was > 100 µM (inactive). For the same compound, the GI50 (SF-539) was > 100 µM (inactive), the GI50 (OVCAR-3) was > 100 µM (inactive) and the GI50 (RPMI-8226) was > 100 µM (inactive). The GI50 (HOP-62) was > 100 µM (inactive), the GI50 (IGROV-1) was > 100 µM (inactive) and the GI50 (KM12) was > 100 µM (inactive). For the same compound, the GI50 (M14) was > 100 µM (inactive), the GI50 (OVCAR-8) was > 100 µM (inactive) and the GI50 (SK-MEL-28) was > 100 µM (inactive). The GI50 (MOLT-4) was > 100 µM (inactive), the GI50 (EKVX) was > 100 µM (inactive) and the GI50 (MCF7) was > 100 µM (inactive). For the same compound, the GI50 (HL-60) was > 100 µM (inactive), the GI50 (HCT-116) was > 100 µM (inactive) and the GI50 (LOX IMVI) was > 100 µM (inactive). The GI50 (SK-MEL-5) was > 100 µM (inactive), the GI50 (HT-29) was > 100 µM (inactive) and the GI50 (NCI-H226) was > 100 µM (inactive). For the same compound, the GI50 (SF-268) was 93.1 µM (inactive), the GI50 (SNB-19) was > 100 µM (inactive) and the GI50 (NCI-H460) was > 100 µM (inactive). The GI50 (MDA-N) was > 100 µM (inactive) and the GI50 (SW-620) was > 100 µM (inactive).

In the case of `Nc1ccc(CCSSCCc2ccc(N)cc2)cc1`, the GI50 (CCRF-CEM) is reported as 1.38 µM (inactive), the GI50 (786-0) is reported as 17 µM (inactive) and the GI50 (MDA-MB-435) is reported as 26.9 µM (inactive). For the same compound, the GI50 (ACHN) was 29.6 µM (inactive), the GI50 (U-251) was 19.6 µM (inactive) and the GI50 (SF-295) was 39 µM (inactive). The GI50 (Malme-3M) was 12.2 µM (inactive), the GI50 (SR) was 0.991 µM (active) and the GI50 (SNB-75) was 30.9 µM (inactive). For the same compound, the GI50 (HCC 2998) was 17.6 µM (inactive), the GI50 (UO-31) was 22.7 µM (inactive) and the GI50 (SK-OV-3) was 43.6 µM (inactive). The GI50 (A498) was 32.1 µM (inactive), the GI50 (CAKI-1) was 26.4 µM (inactive) and the GI50 (HOP-92) was 34.5 µM (inactive). For the same compound, the GI50 (NCI-H23) was 29.7 µM (inactive), the GI50 (TK-10) was 36.1 µM (inactive) and the GI50 (NCI/ADR-RES) was 23.2 µM (inactive). The GI50 (K562) was 6.4 µM (inactive), the GI50 (BT-549) was 25.5 µM (inactive) and the GI50 (NCI-H522) was 12.9 µM (inactive). For the same compound, the GI50 (OVCAR-4) was 28.6 µM (inactive), the GI50 (T47D) was 35.6 µM (inactive) and the GI50 (DU-145) was 28.3 µM (inactive). For the same compound, the GI50 (A549) was 35.1 µM (inactive), the GI50 (HCT-15) was 23.4 µM and the GI50 (UACC-257) was 20 µM (inactive). For the same compound, the GI50 (OVCAR-5) was 29.6 µM (inactive), the GI50 (SN12C) was 22.9 µM (inactive) and the GI50 (COLO 205) was 41.1 µM (inactive). For the same compound, the GI50 (SK-MEL-2) was 20.2 µM (inactive), the GI50 (Hs-578T) was 16.2 µM (inactive) and the GI50 (UACC-62) was 26.5 µM (inactive). The GI50 (PC-3) was 29.4 µM (inactive), the GI50 (RXF 393) was 21.8 µM (inactive) and the GI50 (MDA-MB-231) was 39.3 µM (inactive). For the same compound, the GI50 (SF-539) was 24.9 µM (inactive), the GI50 (OVCAR-3) was 31.6 µM (inactive) and the GI50 (RPMI-8226) was 25.1 µM (inactive). For the same compound, the GI50 (HOP-62) was 55.2 µM (inactive), the GI50 (IGROV-1) was 37.1 µM (inactive) and the GI50 (KM12) was 30.3 µM (inactive). The GI50 (M14) was 30 µM (inactive), the GI50 (OVCAR-8) was 28 µM (inactive) and the GI50 (SK-MEL-28) was 28.3 µM (inactive). For the same compound, the GI50 (MOLT-4) was 1.81 µM (inactive), the GI50 (EKVX) was 53.5 µM (inactive) and the GI50 (MCF7) was 29.7 µM (inactive). For the same compound, the GI50 (HCT-116) was 16.1 µM (inactive), the GI50 (LOX IMVI) was 21.9 µM (inactive) and the GI50 (SK-MEL-5) was 19.8 µM (inactive). For the same compound, the GI50 (HT-29) was 21.8 µM (inactive), the GI50 (NCI-H226) was 27.5 µM (inactive) and the GI50 (SF-268) was 18.4 µM (inactive). The GI50 (SNB-19) was 50.7 µM (inactive), the GI50 (NCI-H460) was 25.7 µM (inactive) and the GI50 (MDA-N) was 27.7 µM (inactive). For the same compound, the GI50 (SW-620) was 30 µM (inactive).

In the case of `O=C1C=CC(=O)N1n1c(-c2ccccc2)n[nH]c1=O`, the GI50 (CCRF-CEM) is reported as > 100 µM (inactive), the GI50 (786-0) is reported as > 100 µM (inactive) and the GI50 (MDA-MB-435) is reported as > 100 µM (inactive). For the same compound, the GI50 (U-251) was > 100 µM (inactive), the GI50 (SF-295) was > 100 µM (inactive) and the GI50 (Malme-3M) was > 100 µM (inactive). For the same compound, the GI50 (SR) was > 100 µM (inactive), the GI50 (HCC 2998) was > 100 µM (inactive) and the GI50 (SK-OV-3) was > 100 µM (inactive). For the same compound, the GI50 (A498) was > 100 µM (inactive), the GI50 (CAKI-1) was > 100 µM (inactive) and the GI50 (NCI-H23) was > 100 µM (inactive). For the same compound, the GI50 (TK-10) was > 100 µM (inactive), the GI50 (NCI/ADR-RES) was > 100 µM (inactive) and the GI50 (K562) was > 100 µM (inactive). For the same compound, the GI50 (BT-549) was > 100 µM (inactive), the GI50 (NCI-H522) was > 100 µM (inactive) and the GI50 (OVCAR-4) was > 100 µM (inactive). For the same compound, the GI50 (T47D) was > 100 µM (inactive), the GI50 (DU-145) was > 100 µM (inactive) and the GI50 (A549) was > 100 µM (inactive). For the same compound, the GI50 (HCT-15) was > 100 µM, the GI50 (UACC-257) was > 100 µM (inactive) and the GI50 (OVCAR-5) was > 100 µM (inactive). For the same compound, the GI50 (SN12C) was > 100 µM (inactive), the GI50 (COLO 205) was > 100 µM (inactive) and the GI50 (SK-MEL-2) was > 100 µM (inactive). For the same compound, the GI50 (Hs-578T) was > 100 µM (inactive), the GI50 (UACC-62) was > 100 µM (inactive) and the GI50 (PC-3) was > 100 µM (inactive). For the same compound, the GI50 (RXF 393) was > 100 µM (inactive), the GI50 (MDA-MB-231) was > 100 µM (inactive) and the GI50 (SF-539) was > 100 µM (inactive). For the same compound, the GI50 (OVCAR-3) was > 100 µM (inactive), the GI50 (HOP-62) was > 100 µM (inactive) and the GI50 (IGROV-1) was > 100 µM (inactive). For the same compound, the GI50 (M14) was > 100 µM (inactive), the GI50 (OVCAR-8) was > 100 µM (inactive) and the GI50 (MOLT-4) was > 100 µM (inactive). For the same compound, the GI50 (EKVX) was > 100 µM (inactive), the GI50 (MCF7) was > 100 µM (inactive) and the GI50 (HL-60) was > 100 µM (inactive). The GI50 (HCT-116) was > 100 µM (inactive), the GI50 (SK-MEL-5) was > 100 µM (inactive) and the GI50 (HT-29) was > 100 µM (inactive). The GI50 (NCI-H226) was > 100 µM (inactive), the GI50 (SF-268) was > 100 µM (inactive) and the GI50 (NCI-H460) was > 100 µM (inactive). For the same compound, the GI50 (MDA-N) was > 100 µM (inactive).
